Results: patent US7998992B2, “Oxazolidinone derivative having inhibitory activity on 11β-hydroxysteroid dehydrogenase type 1” (Institute of Medicinal Molecular Design, Inc., priority 2007, dated 2011)

Assays:
Mouse 11β-HSD1 = Mouse 11β-HSD1 (Mus musculus, UniProt P50172); assay: Evaluation of compound against mouse 11β-HSD1 (HTRF corticosterone assay); format: biochemical; conditions: substrate 11-dehydrocorticosterone 2 μM, 37° C. for 2 hours, HTRF method
Description: (§1) After preincubating an inhibitor in a reaction solution consisting of 50 mM sodium phosphate buffer (pH 7.6), bovine serum albumin (1 mg/mL), NADPH (0.42 mg/mL), glucose-6-phosphate (1.26 mg/mL), glucose-6-phosphate dehydrogenase, and an enzyme at room temperature for 30 minutes, 11-dehydrocorticosterone (2 μM) which is a substrate was added (total amount 10 μL). After reacting at 37° C. for 2 hours, an XL-665-labeled cortisol solution (5 μL), and a Cryptate-labeled anti-cortisol antibody solution (5 μL) were added, a reaction was performed at room temperature for 2 hours, and fluorescence intensity (HTRF method) was measured.
A corticosterone concentration was measured from a standard curve prepared using a known concentration of corticosterone for each assay.
Taking a concentration of corticosterone generated in the absence of the inhibitor as a control value, 50% inhibition concentration (IC50 value) of the inhibitor against 11β-HSD1 was calculated from an inhibition curve plotting inhibition rate against the control value at each concentration of the inhibitor.

Human 11β-HSD1 = Human 11β-HSD1 (Homo sapiens, UniProt P28845); assay: Evaluation of compound against human 11β-HSD1 (HTRF cortisol assay); format: biochemical; conditions: substrate cortisone 5 μM, 37° C. for 2 hours, HTRF method
Chain of Human 11β-HSD1 (P28845 whole entry): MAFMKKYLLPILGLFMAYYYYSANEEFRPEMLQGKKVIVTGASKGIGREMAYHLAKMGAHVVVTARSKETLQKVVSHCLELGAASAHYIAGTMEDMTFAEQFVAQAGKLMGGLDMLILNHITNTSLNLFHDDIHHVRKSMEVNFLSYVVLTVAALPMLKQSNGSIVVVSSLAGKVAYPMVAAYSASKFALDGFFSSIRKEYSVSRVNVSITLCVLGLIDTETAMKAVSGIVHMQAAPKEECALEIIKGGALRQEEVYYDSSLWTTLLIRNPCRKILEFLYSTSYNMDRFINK
Description: as §1, with “dehydrogenase” for “dehydrogenase,”, “cortisone (5” for “11-dehydrocorticosterone (2”, “measured. A cortisol concentration was measured from a standard curve prepared using a known concentration of cortisol for each assay.” for “measured.”
Taking a concentration of cortisol generated in the absence of the inhibitor as a control value, 50% inhibition concentration (IC50 value) of the inhibitor against 11β-HSD1 was calculated from an inhibition curve plotting inhibition rate against the control value at each concentration of an inhibitor.

Chain of Mouse 11β-HSD1 (P50172 whole entry): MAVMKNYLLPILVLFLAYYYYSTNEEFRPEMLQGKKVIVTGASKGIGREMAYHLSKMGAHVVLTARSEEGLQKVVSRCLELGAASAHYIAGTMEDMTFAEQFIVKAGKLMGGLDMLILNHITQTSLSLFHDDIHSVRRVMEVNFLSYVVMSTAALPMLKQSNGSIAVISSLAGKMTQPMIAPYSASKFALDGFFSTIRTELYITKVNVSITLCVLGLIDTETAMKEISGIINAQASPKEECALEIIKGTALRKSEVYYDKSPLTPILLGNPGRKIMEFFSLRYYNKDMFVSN

IC50 (Mouse 11β-HSD1): 8.4 µM
IC50 (Human 11β-HSD1): 0.43 µM
SMILES: CCN(C[C@@H]1CN(C2CCCCCCC2)C(=O)O1)S(=O)(=O)c1ccccc1 [Compound I-21]
